Assay results published in patent publication US4000310A, “Pharmaceutical compositions containing 6-methyl-3,4-diphenyl-3,4,5,6-tetrahydro-2-pyrone or derivatives thereof” (Union Chimique Continentale-U.C.C, priority 1974, dated 1976).

Experiments:
mouse [1] = test: Motor activity in the mouse (actimeters with photoelectric cells); type: in vivo, mouse (male, Swiss NMRI stock); conditions: for motor activity relative to the control group: 64 mg/kg oral
Description: (§1) All the experiments described below were carried out using male rats weighing from 170 to 220 g (Wistar Af stock) and male mice weighing from 18 to 23 g (Swiss NMRI stock).
Motor activity was determined using actimeters with photoelectric cells (Boissier and Simon, Arch. int. Pharmacodyn., 1965, 158, 212-221). A minimum of 12 animals were always used per point.
a. MDTP is administered orally at variable times before activity is measured.
b. When administered orally 30 minutes before the actograph is taken, MDTP increases the motor activity of mice.
c. When administered orally immediately before the actograph is taken, MDTP (128 mg/kg) brings a marked increase in the motor activity of mice up to the 150th minute (Table I).

[2] = test system: convulsion-inducing attacks; test: Interaction with convulsion-inducing dose of cardiazol; type: in vivo; conditions: 64 mg/kg oral 30 min before cardiazol 160 mg/kg s.c.
monoamine oxidase = test: Monoamine oxidase inhibition (tryptamine test); type: in vivo, rat (male, Wistar Af stock); conditions: rat, 64 mg/kg i.p.; tryptamine 3 mg/kg i.v.
Description: as §1
The dose of tryptamine given was insufficient to induce convulsions (3 mg/kg by intravenous injection).

rat [3] = test: Observation of the animals, rat; type: in vivo, rat (male, Wistar Af stock)
Description: as §1
(§2) All the experiments took place in a laboratory with a constant temperature (22° ± 1° C).
(§3) All the experiments were carried out blind (without the experimenter knowing, at the time of the tests, which animals had received the substance presumed active).
(§4) Unless otherwise stated, 10 animals were always used per point.

rats = test: Test for antireserpine action, rats; type: in vivo, rat (male, Wistar Af stock); conditions: rats, 8, 16, 32 and 64 mg/kg oral; reserpine 2.5 mg/kg i.p. 4 hours before
Description: as §1

mouse [4] = test: Interaction with electric shocks; type: in vivo, mouse (male, Swiss NMRI stock); conditions: mouse, 16, 32, 64 or 128 mg/kg oral 60 min before electric shock
Description: as §1

animals = test: Test with the board containing holes; type: in vivo
Description: The method and apparatus described by BOISSIER and SIMON (Physiol. Behav. 1967, 2, 444-448) were used. During these experiments 15 animals were used per batch (except that 30 were used for the control group and 30 for the dose of 64 mg/kg).

rat [5] = test: Apomorphine stereotypy test; type: in vivo, rat (male, Wistar Af stock); conditions: rat, 32, 64 or 128 mg/kg oral 60 min before apomorphine 0.5 mg/kg s.c.
Description: as §1

mouse [6] = test: Effects of barbiturate hypnotics, mouse; type: in vivo, mouse (male, Swiss NMRI stock); conditions: mouse, 16, 32 or 64 mg/kg oral, with pentabarbitone or barbitone sodium
Description: as §1

mouse [7] = test: Hot-plate test on the mouse; type: in vivo, mouse (male, Swiss NMRI stock)
Description: as §1
This test was applied to measure the time taken or animals to react to a painful stimulus. 12 animals were used per point. 15 Minutes after oral administration of MDTP (64 mg/kg) the time taken for mice exposed to the hot-plate to react (by licking their rear paws) was 5.9 seconds, whereas the time taken by the control group was 9.5 seconds (difference significant at the threshold of 0.01).
On the other hand, the effects on this test of an analgesic dose of morphine was not changed -- either by increasing or reducing them -- by MDTP at the same dose.

rat [8] = test: Effects of barbiturate hypnotics, rat; type: in vivo, rat (male, Wistar Af stock); conditions: rat, 16, 32 or 64 mg/kg oral, with pentabarbitone or barbitone sodium
Description: as §1

rat [9] = test: Amphetamine stereotypy test; type: in vivo, rat (male, Wistar Af stock); conditions: rat, 32, 64 or 128 mg/kg oral 60 min before amphetamine 2 mg/kg i.p.
Description: as §1

rat [10] = test: Motor activity in the rat (actimeters with photoelectric cells); type: in vivo, rat (male, Wistar Af stock)
Description: as §1
Motor activity was determined with the aid of actimeters with photoelectric cells described by Tedeschi and Coll (J. Pharm. sci. 1964, 53, 1046-1049). A minimum of 10 animals were always used per point. They show a large increase in the motor activity of rats, which becomes significant from a dose of 32 mg/kg given orally.

[11] = Acute toxicity in the rat; type: in vivo; conditions: in vivo
Description: as §1, §2, §3, §4
(§5) In the rat, with either oral or intraperitoneal administration, the LD50 of 6-methyl 3,4-diphenyl-3,4,5,6-tetrahydro 2-pyrone was over 300 mg/kg.

rat [12] = test: Acute toxicity in the rat; type: in vivo
Description: as §1, §2, §3, §4, §5

[13] = 16 mg/kg orally 60 min before test
[14] = 32 mg/kg orally 60 min before test
[15] = 64 mg/kg orally 60 min before test
[16] = 128 mg/kg orally 60 min before test
[17] = 16 mg/kg orally 15 min before test
[18] = 32 mg/kg orally 15 min before test
[19] = 64 mg/kg orally 15 min before test
[20] = 128 mg/kg orally 15 min before test

With `CC1CC(c2ccccc2)C(c2ccccc2)C(=O)O1` (stereo not shown) [MDTP, 6-methyl-3,4-diphenyl-3,4,5,6-tetrahydro-2-pyrone] the “motor activity relative to the control group” value (mouse [1]; 15 min pretreatment) was 221%, the “motor activity relative to the control group” value (mouse [1]; 30 min pretreatment) was 192% and the “motor activity relative to the control group” value (mouse [1]; 60 min pretreatment) was 161%. For the same compound, the “motor activity relative to the control group” value (mouse [1]; 120 min pretreatment) was 136%, the “Number of bars passed over by mice, 150 to 180 min” value (mouse [1]; 128 mg/kg orally, control group 8) was 25 and the “Number of bars passed over by mice, 60 to 90 min” value (mouse [1]; 128 mg/kg orally, control group 12) was 244. The “Number of bars passed over by mice, 120 to 150 min” value (mouse [1]; 128 mg/kg orally, control group 14) was 66, the “Number of bars passed over by mice, 90 to 120 min” value (mouse [1]; 128 mg/kg orally, control group 15) was 99 and the “Number of bars passed over by mice, 30 to 60 min” value (mouse [1]; 128 mg/kg orally, control group 82) was 428. For the same compound, the “Number of bars passed over by mice, 0 to 30 min” value (mouse [1]; 128 mg/kg orally, control group 390) was 846, the minimal effective dose (mouse [1]; 0.5 h, mouse, oral, 30 min before actograph, read-out: dose from which increase in motor activity becomes significant) was 32 mg/kg and the “dose dependence of increase in motor activity” value (mouse [1]; mouse, oral, 30 min before actograph) was “proportional to the dose administered”. The “latency of convulsion-inducing attacks” value [2] was “did not reduce the latency of the convulsion-inducing attacks”, the “effects of tryptamine (inhibiting effect on monoamine oxidase)” value (monoamine oxidase) was “did not increase the effects of tryptamine” and the sexual behaviour (rat [3]) was “An increase in sexual behaviour”. For the same compound, the “diameter of the pupils, rectal temperature” value (rat [3]; doses below toxic level) was “no change in diameter of the pupils or the rectal temperature”, the “motor incoordination, abnormal or stereotyped movements” value (rat [3]; doses below toxic level) was “not accompanied by motor incoordination or by abnormal or stereotyped movements” and the hyperthermia (rat [3]; doses very close to lethal level) was “moderate hyperthermia”. The toxic signs (rat [3]; in vivo) was “tremors, hyperreactivity to very intense stimuli, interaggressiveness and convulsive phenomena with the rear paws stretched”, the excitation on observation (rat [3]; oral or intraperitoneal, from 16 mg/kg, below toxic level) was “slight excitation is observed with increased reaction to touching or to sound stimuli” and the minimal effective dose (rat [3]; oral or intraperitoneal, read-out: dose from which slight excitation is observed) was 16 mg/kg. The “change in reserpine-induced hypothermia or palpebral ptosis” value (rats) was “did not produce any change in the hypothermia or palpebral ptosis”, the “duration or form of convulsive attacks” value (mouse [4]) was “did not affect either the duration or the form of the convulsive attacks” and the “mortality after the attack” value (mouse [4]) was “did not lead to any increase in mortality after the attack”. The “displacements made in 5 min” value (animals; [13]) was 98 % of control group, the “holes explored in 5 min” value (animals; [13]) was 120 % of control group and the “displacements made in 5 min” value (animals; [14]) was 115 % of control group. For the same compound, the “holes explored in 5 min” value (animals; [14]) was 131 % of control group, the “displacements made in 5 min” value (animals; [15]) was 161 % of control group and the “holes explored in 5 min” value (animals; [15]) was 140 % of control group. The “displacements made in 5 min” value (animals; [16]) was 159 % of control group, the “holes explored in 5 min” value (animals; [16]) was 141 % of control group and the minimal effective dose (animals; oral, read-out: dose from which increase in number of holes explored becomes significant) was 32 mg/kg. For the same compound, the “change in apomorphine-induced stereotyped movements” value (rat [5]) was “did not bring about any change in the sterotyped movements”, the “change in time to fall asleep and sleeping period” value (mouse [6]) was “did not produce any change in the time taken to fall asleep or in the sleeping period” and the “time taken to react (licking rear paws) on hot-plate” value (mouse [7]; 64 mg/kg oral, 15 min after, control 9.5 seconds, significant at 0.01) was 5.9 s. For the same compound, the “change in effects of an analgesic dose of morphine on hot-plate test” value (mouse [7]; MDTP at the same dose) was “not changed”, the “change in time to fall asleep and sleeping period” value (rat [8]) was “did not produce any change in the time taken to fall asleep or in the sleeping period” and the “change in amphetamine-induced stereotyped movements” value (rat [9]) was “did not bring about any change in the stereotyped movements”. For the same compound, the “Number of bars passed over after 5 min” value (rat [10]; [17]) was 131 % of control group, the “Number of bars passed over after 10 min” value (rat [10]; [17]) was 135 % of control group and the “Number of bars passed over after 15 min” value (rat [10]; [17]) was 148 % of control group. The “Number of bars passed over after 20 min” value (rat [10]; [17]) was 145 % of control group, the “Number of bars passed over after 25 min” value (rat [10]; [17]) was 144 % of control group and the “Number of bars passed over after 30 min” value (rat [10]; [17]) was 133 % of control group. The “Number of bars passed over after 5 min” value (rat [10]; [18]) was 186 % of control group, the “Number of bars passed over after 10 min” value (rat [10]; [18]) was 184 % of control group and the “Number of bars passed over after 15 min” value (rat [10]; [18]) was 135 % of control group. For the same compound, the “Number of bars passed over after 20 min” value (rat [10]; [18]) was 138 % of control group, the “Number of bars passed over after 25 min” value (rat [10]; [18]) was 155 % of control group and the “Number of bars passed over after 30 min” value (rat [10]; [18]) was 161 % of control group. For the same compound, the “Number of bars passed over after 5 min” value (rat [10]; [19]) was 155 % of control group, the “Number of bars passed over after 10 min” value (rat [10]; [19]) was 181 % of control group and the “Number of bars passed over after 15 min” value (rat [10]; [19]) was 178 % of control group. The “Number of bars passed over after 20 min” value (rat [10]; [19]) was 200 % of control group, the “Number of bars passed over after 25 min” value (rat [10]; [19]) was 186 % of control group and the “Number of bars passed over after 30 min” value (rat [10]; [19]) was 195 % of control group. For the same compound, the “Number of bars passed over after 5 min” value (rat [10]; [20]) was 210 % of control group, the “Number of bars passed over after 10 min” value (rat [10]; [20]) was 215 % of control group and the “Number of bars passed over after 15 min” value (rat [10]; [20]) was 209 % of control group. The “Number of bars passed over after 20 min” value (rat [10]; [20]) was 217 % of control group, the “Number of bars passed over after 25 min” value (rat [10]; [20]) was 215 % of control group and the “Number of bars passed over after 30 min” value (rat [10]; [20]) was 201 % of control group. The minimal effective dose (rat [10]; oral, read-out: dose from which increase in motor activity becomes significant) was 32 mg/kg, the LD50 ([11]; ip, intraperitoneal) was greater than 300 mg/kg and the LD50 ([11]; oral) was greater than 300 mg/kg. For the same compound, the “ratio LD50/ED 50” value (rat [12]) was “over 10/1”.
